Our source for the TGI values is PubChem BioAssay (NCI).

Molecules are shown by their SMILES.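 Dose response: 5 concentrations. Exposure: 48 h. Format: 96-well plates. Endpoint: linear interpolation; highest concentration if not reached. The concentration for full growth arrest is given as TGI.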

The test system of one assay is 786-0 renal. Kind of assay: NCI-60 cell line screen, 48 h.
Compound `Cc1ccc(S(=O)(=O)N/N=C/C2(c3ccccc3)c3ccccc3-c3ccccc32)cc1` returned a TGI of 31.2 µM.

Compound `O=C(/C=C/c1ccc2c(c1)OCO2)CC(=O)C(=O)c1c[nH]c2ccccc12` showed a TGI of more than 100 µM.

Take `Cc1cc(O)c(/C=N/C(=S)NCc2ccccc2)c(=O)o1`: the TGI is more than 100 µM.

In a further assay the test system is NCI-H460 lung. Nature of the assay: NCI-60 cell line screen, 48 h.
`Cc1ccc(S(=O)(=O)N/N=C/C2(c3ccccc3)c3ccccc3-c3ccccc32)cc1`: the TGI was 18.2 µM.

In the case of `O=C(/C=C/c1ccc2c(c1)OCO2)CC(=O)C(=O)c1c[nH]c2ccccc12`, the TGI was more than 100 µM.

For `Cc1cc(O)c(/C=N/C(=S)NCc2ccccc2)c(=O)o1`, the TGI was more than 100 µM.

In another assay the test system is NCI/ADR-RES ovarian. Nature of the assay: NCI-60 cell line screen, 48 h.
In the case of `O=C1NCCN1/N=C/c1c(Cl)n(-c2ccccc2)c2ccccc12`, the TGI came out at 49.6 µM.

In turn, `Cc1ccc(S(=O)(=O)N/N=C/C2(c3ccccc3)c3ccccc3-c3ccccc32)cc1` showed a TGI of 24.6 µM.

`O=C(/C=C/c1ccc2c(c1)OCO2)CC(=O)C(=O)c1c[nH]c2ccccc12` registered a TGI of more than 100 µM.

As to `Cc1cc(O)c(/C=N/C(=S)NCc2ccccc2)c(=O)o1`, the TGI was more than 100 µM.

The subject of a further assay is EKVX NSCLC. Kind of assay: NCI-60 cell line screen, 48 h.
Take `O=C1NCCN1/N=C/c1c(Cl)n(-c2ccccc2)c2ccccc12`: the TGI was 91.5 µM.

In turn, `Cc1ccc(S(=O)(=O)N/N=C/C2(c3ccccc3)c3ccccc3-c3ccccc32)cc1` yielded a TGI of 30.2 µM.

In turn, `O=C(/C=C/c1ccc2c(c1)OCO2)CC(=O)C(=O)c1c[nH]c2ccccc12` registered a TGI of more than 100 µM.

`Cc1cc(O)c(/C=N/C(=S)NCc2ccccc2)c(=O)o1` returned a TGI of more than 100 µM.

In the next assay the test system is SF-539 CNS. Nature of the assay: NCI-60 cell line screen, 48 h.
`O=C1NCCN1/N=C/c1c(Cl)n(-c2ccccc2)c2ccccc12` showed a TGI of 33.7 µM.

In the case of `Cc1ccc(S(=O)(=O)N/N=C/C2(c3ccccc3)c3ccccc3-c3ccccc32)cc1`, the TGI came out at 30.9 µM.

Consider `O=C(/C=C/c1ccc2c(c1)OCO2)CC(=O)C(=O)c1c[nH]c2ccccc12`, for which the TGI was more than 100 µM.

As for `Cc1cc(O)c(/C=N/C(=S)NCc2ccccc2)c(=O)o1`, the TGI was more than 100 µM.

Another assay deals with UACC-62 melanoma. Kind of assay: NCI-60 cell line screen, 48 h.
On to `O=C1NCCN1/N=C/c1c(Cl)n(-c2ccccc2)c2ccccc12`, for which the TGI was 41.5 µM.

Compound `Cc1ccc(S(=O)(=O)N/N=C/C2(c3ccccc3)c3ccccc3-c3ccccc32)cc1` returned a TGI of 27.3 µM.

The compound `O=C(/C=C/c1ccc2c(c1)OCO2)CC(=O)C(=O)c1c[nH]c2ccccc12` yielded a TGI of more than 100 µM.

As to `Cc1cc(O)c(/C=N/C(=S)NCc2ccccc2)c(=O)o1`, the TGI was more than 100 µM.

A further assay has as its system COLO 205 colon. Kind of assay: NCI-60 cell line screen, 48 h.
`O=C1NCCN1/N=C/c1c(Cl)n(-c2ccccc2)c2ccccc12` yielded a TGI of 40.5 µM.

The compound `Cc1ccc(S(=O)(=O)N/N=C/C2(c3ccccc3)c3ccccc3-c3ccccc32)cc1` registered a TGI of 13.8 µM.

As to `O=C(/C=C/c1ccc2c(c1)OCO2)CC(=O)C(=O)c1c[nH]c2ccccc12`, the TGI is more than 100 µM.

Take `Cc1cc(O)c(/C=N/C(=S)NCc2ccccc2)c(=O)o1`: the TGI is more than 100 µM.

A further assay concerns SK-MEL-5 melanoma. Nature of the assay: NCI-60 cell line screen, 48 h.
On to `O=C1NCCN1/N=C/c1c(Cl)n(-c2ccccc2)c2ccccc12`, for which the TGI was determined as 29.3 µM.

`Cc1ccc(S(=O)(=O)N/N=C/C2(c3ccccc3)c3ccccc3-c3ccccc32)cc1` gave a TGI of 23.9 µM.

Compound `O=C(/C=C/c1ccc2c(c1)OCO2)CC(=O)C(=O)c1c[nH]c2ccccc12` showed a TGI of more than 100 µM.

As for `Cc1cc(O)c(/C=N/C(=S)NCc2ccccc2)c(=O)o1`, the TGI was more than 100 µM.

The next assay deals with LOX IMVI melanoma. Nature of the assay: NCI-60 cell line screen, 48 h.
As to `O=C1NCCN1/N=C/c1c(Cl)n(-c2ccccc2)c2ccccc12`, the TGI was 38.9 µM.

As to `Cc1ccc(S(=O)(=O)N/N=C/C2(c3ccccc3)c3ccccc3-c3ccccc32)cc1`, the TGI came to 26.1 µM.

`O=C(/C=C/c1ccc2c(c1)OCO2)CC(=O)C(=O)c1c[nH]c2ccccc12` registered a TGI of more than 100 µM.

`Cc1cc(O)c(/C=N/C(=S)NCc2ccccc2)c(=O)o1` registered a TGI of more than 100 µM.

In the next assay the test system is HCC-2998 colon. Nature of the assay: NCI-60 cell line screen, 48 h.
`O=C1NCCN1/N=C/c1c(Cl)n(-c2ccccc2)c2ccccc12` had a TGI of 36.2 µM.

`Cc1ccc(S(=O)(=O)N/N=C/C2(c3ccccc3)c3ccccc3-c3ccccc32)cc1` registered a TGI of 26.3 µM.

Regarding `O=C(/C=C/c1ccc2c(c1)OCO2)CC(=O)C(=O)c1c[nH]c2ccccc12`, the TGI came to 48.4 µM.

In turn, `Cc1cc(O)c(/C=N/C(=S)NCc2ccccc2)c(=O)o1` returned a TGI of more than 100 µM.

A further assay concerns MCF7 breast. Nature of the assay: NCI-60 cell line screen, 48 h.
Take `O=C1NCCN1/N=C/c1c(Cl)n(-c2ccccc2)c2ccccc12`: the TGI is 67.3 µM.

Compound `Cc1ccc(S(=O)(=O)N/N=C/C2(c3ccccc3)c3ccccc3-c3ccccc32)cc1` showed a TGI of 29.6 µM.

`O=C(/C=C/c1ccc2c(c1)OCO2)CC(=O)C(=O)c1c[nH]c2ccccc12`: the TGI is more than 100 µM.

Turning to `Cc1cc(O)c(/C=N/C(=S)NCc2ccccc2)c(=O)o1`, the TGI is more than 100 µM.

A further assay deals with UO-31 renal. Nature of the assay: NCI-60 cell line screen, 48 h.
As to `O=C1NCCN1/N=C/c1c(Cl)n(-c2ccccc2)c2ccccc12`, the TGI amounted to 46.3 µM.

Take `Cc1ccc(S(=O)(=O)N/N=C/C2(c3ccccc3)c3ccccc3-c3ccccc32)cc1`: the TGI came out at 18.6 µM.

Take `O=C(/C=C/c1ccc2c(c1)OCO2)CC(=O)C(=O)c1c[nH]c2ccccc12`: the TGI worked out at 64.1 µM.

In the case of `Cc1cc(O)c(/C=N/C(=S)NCc2ccccc2)c(=O)o1`, the TGI is more than 100 µM.

A further assay deals with UACC-257 melanoma. Kind of assay: NCI-60 cell line screen, 48 h.
`O=C1NCCN1/N=C/c1c(Cl)n(-c2ccccc2)c2ccccc12` registered a TGI of 58.5 µM.

Take `Cc1ccc(S(=O)(=O)N/N=C/C2(c3ccccc3)c3ccccc3-c3ccccc32)cc1`: the TGI was 31.4 µM.

Compound `O=C(/C=C/c1ccc2c(c1)OCO2)CC(=O)C(=O)c1c[nH]c2ccccc12` registered a TGI of more than 100 µM.

In turn, `Cc1cc(O)c(/C=N/C(=S)NCc2ccccc2)c(=O)o1` returned a TGI of more than 100 µM.

The next assay relates to HOP-62 NSCLC. Nature of the assay: NCI-60 cell line screen, 48 h.
Consider `O=C1NCCN1/N=C/c1c(Cl)n(-c2ccccc2)c2ccccc12`, for which the TGI was more than 100 µM.

On to `Cc1ccc(S(=O)(=O)N/N=C/C2(c3ccccc3)c3ccccc3-c3ccccc32)cc1`, for which the TGI came out at 32.1 µM.

`O=C(/C=C/c1ccc2c(c1)OCO2)CC(=O)C(=O)c1c[nH]c2ccccc12` had a TGI of more than 100 µM.

Take `Cc1cc(O)c(/C=N/C(=S)NCc2ccccc2)c(=O)o1`: the TGI was more than 100 µM.

For the next assay, the system named is ACHN renal. Nature of the assay: NCI-60 cell line screen, 48 h.
`O=C1NCCN1/N=C/c1c(Cl)n(-c2ccccc2)c2ccccc12`: the TGI was 62 µM.

As for `Cc1ccc(S(=O)(=O)N/N=C/C2(c3ccccc3)c3ccccc3-c3ccccc32)cc1`, the TGI came to 88.3 µM.

Compound `O=C(/C=C/c1ccc2c(c1)OCO2)CC(=O)C(=O)c1c[nH]c2ccccc12` yielded a TGI of more than 100 µM.
